Data published in the supplement of paper PMC10883282.
± gives the standard deviation of the averaged measurements.

Tested on: SYO-1
Assay: relative viability vs DMSO control (72 h) (fraction); higher = more viable cells
Procedure, shortened: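 Sarcoma cell lines in 384-well plates, seeded to reach 80–90% confluence, were given compound after 24 h and kept 72 h at 37 °C, 5% CO2, with 0.1% DMSO vehicle and a 5 µM positive control. Relative viability came from ATPLite as percent growth, averaged over up to triplicate wells. On the rescaled values, 1 equals full and 0 equals none.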

SMILES | relative viability (2 pM) | relative viability (5 pM) | relative viability (15 pM) | relative viability (50 pM) | relative viability (0.00014 µM) | relative viability (0.00041 µM) | relative viability (0.0012 µM) | relative viability (0.0037 µM) | relative viability (0.011 µM) | relative viability (200 fM) | relative viability (600 fM) | relative viability (0.00017 µM) | relative viability (0.00051 µM) | relative viability (0.00152 µM) | relative viability (0.00457 µM) | relative viability (0.01372 µM) | relative viability (0.04115 µM) | relative viability (0.1235 µM) | relative viability (0.3704 µM) | relative viability (1.111 µM) | relative viability (3.333 µM) | relative viability (10 µM)
COc1cc2c(cc1O)CCN[C@]21CS[C@@H]2c3c(OC(C)=O)c(C)c4c(c3[C@H](COC1=O)N1[C@@H]2[C@H]2c3c(cc(C)c(OC)c3O)C[C@@H]([C@@H]1O)N2C)OCO4 [Trabectedin] | 0.489 ± 0.027 | 0.422 ± 0.039 | 0.299 ± 0.027 | 0.194 ± 0.13 | 0.0855 ± 0.18 | 0.0855 ± 0.18 | 0.26 ± 0.031 | 0.315 ± 0.0091 | 0.312 ± 0.02 | 0.4804 ± 0.002 | 0.512 ± 0.024 | – | – | – | – | – | – | – | – | – | – | –
Nc1cc(C(F)(F)F)c(-c2cc(N3CCOCC3)nc(N3CCOCC3)n2)cn1 [Buparlisib] | – | – | – | – | – | – | – | – | – | – | – | 0.933 ± 0.025 | 0.939 ± 0.011 | 0.935 ± 0.028 | 0.931 ± 0.022 | 0.894 ± 0.043 | 0.878 ± 0.066 | 0.81 ± 0.075 | 0.739 ± 0.052 | 0.456 ± 0.0064 | 0.159 ± 0.0096 | 0.136 ± 0.005
CC(C)NC(=O)C1CCC(n2c(NC(=O)c3ccc(F)cc3)nc3ccc(CN4CCC(C(C)(C)O)CC4)cc32)CC1 (centres undefined) [Belizatinib] | – | – | – | – | – | – | – | – | – | – | – | 0.993 ± 0.062 | 0.983 ± 0.019 | 0.983 ± 0.055 | 1 ± 0.069 | 0.96 ± 0.03 | 0.967 ± 0.044 | 0.902 ± 0.052 | 0.798 ± 0.046 | 0.639 ± 0.046 | 0.336 ± 0.018 | 0.155 ± 0.03
N#CC[C@H](C1CCCC1)n1cc(-c2ncnc3[nH]ccc23)cn1 [Ruxolitinib] | – | – | – | – | – | – | – | – | – | – | – | 0.969 ± 0.039 | 0.975 ± 0.034 | 0.958 ± 0.035 | 0.945 ± 0.029 | 0.964 ± 0.026 | 0.969 ± 0.059 | 0.931 ± 0.043 | 0.941 ± 0.095 | 0.945 ± 0.048 | 0.892 ± 0.037 | 0.641 ± 0.014
